{"source": "the supplement of paper PMC10307832", "assay_in_all_cases": "relative viability (nuclei count vs DMSO), 5 days (fraction); higher = more cells survive", "key": {"[1]": {"compound": "COc1nc(N)nc2c1ncn2[C@@H]1O[C@H](CO)[C@@H](O)[C@@H]1O [Nelarabine] + COc1cccc2cc(-c3nc([C@H]4CC[C@H](C(=O)O)CC4)n4ncnc(N)c34)[nH]c12 [OSI-027] (partner 0.5 µM)", "method_in_brief": "(§1)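 A single step with final 0.05% Triton X-100, 1% formaldehyde and 1 ug/ml Hoechst fixed the cells and stained nuclei 5 days after treatment. Lung cancer cell lines in 1536-well plates had been treated by pin tool the day after seeding with one drug alone or a fixed anchor-drug dose plus five library-drug doses (not always all listed) in √10 steps, and nuclei were counted on 4× images. Relative viability is the ratio of nuclei in treated wells to nuclei in vehicle wells, taken as the median of duplicate plates.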"}, "[2]": {"compound": "C=CCn1c(=O)c2cnc(Nc3ccc(N4CCN(C)CC4)cc3)nc2n1-c1cccc(C(C)(C)O)n1 [Adavosertib] + Cc1cc(Nc2cc(N3CCN(C)CC3)nc(Sc3ccc(NC(=O)C4CC4)cc3)n2)n[nH]1 [Tozasertib] (partner 0.1 µM)", "method_in_brief": "as §1"}, "[3]": {"compound": "COc1nc(N)nc2c1ncn2[C@@H]1O[C@H](CO)[C@@H](O)[C@@H]1O [Nelarabine] + CC(=O)Nc1cccc(-n2c(=O)n(C3CC3)c(=O)c3c(Nc4ccc(I)cc4F)n(C)c(=O)c(C)c32)c1 [Trametinib] (partner 0.02 µM)", "method_in_brief": "as §1"}, "[4]": {"compound": "COc1nc(N)nc2c1ncn2[C@@H]1O[C@H](CO)[C@@H](O)[C@@H]1O [Nelarabine] + O=C(CCCCCCC(=O)Nc1ccccc1)NO [Vorinostat] (partner 1 µM)", "method_in_brief": "as §1"}}}
{"cell line": "EMC-BAC-2", "values": [{"measurement": "relative viability", "setting": "[1]; first compound 0.01 µM", "value": 0.393}, {"measurement": "relative viability", "setting": "[1]; first compound 0.03162 µM", "value": 0.41}, {"measurement": "relative viability", "setting": "[1]; first compound 0.1 µM", "value": 0.398}, {"measurement": "relative viability", "setting": "[1]; first compound 0.3162 µM", "value": 0.36}, {"measurement": "relative viability", "setting": "[1]; first compound 1 µM", "value": 0.377}, {"measurement": "relative viability", "setting": "[2]; first compound 0.01 µM", "value": 0.331}, {"measurement": "relative viability", "setting": "[2]; first compound 0.03162 µM", "value": 0.318}, {"measurement": "relative viability", "setting": "[2]; first compound 0.1 µM", "value": 0.261}, {"measurement": "relative viability", "setting": "[2]; first compound 0.3162 µM", "value": 0.28}, {"measurement": "relative viability", "setting": "[3]; first compound 0.01 µM", "value": 0.895}, {"measurement": "relative viability", "setting": "[3]; first compound 0.03162 µM", "value": 1.02}, {"measurement": "relative viability", "setting": "[3]; first compound 0.1 µM", "value": 0.819}, {"measurement": "relative viability", "setting": "[3]; first compound 0.3162 µM", "value": 0.821}, {"measurement": "relative viability", "setting": "[3]; first compound 1 µM", "value": 0.916}, {"measurement": "relative viability", "setting": "[4]; first compound 0.01 µM", "value": 0.47}, {"measurement": "relative viability", "setting": "[4]; first compound 0.03162 µM", "value": 1.01}, {"measurement": "relative viability", "setting": "[4]; first compound 0.1 µM", "value": 0.643}, {"measurement": "relative viability", "setting": "[4]; first compound 0.3162 µM", "value": 0.441}, {"measurement": "relative viability", "setting": "[4]; first compound 1 µM", "value": 0.399}]}
